In US20060189663A1, “Pyrrole-2,5-dithione derivatives as liver x receptor modulators” (AstraZeneca AB, priority 2003, published 2006):

System: T1, LXRalpha and/or beta
T1 construct: fused on or other part: His-tag (6xHis) on the LXR-LBD
Test: Co-activator recruitment assay (time-resolved fluorescence, LXR-LBD / SRC-1 peptide)
Format: biochemical, human
Conditions: LXR isoform (alpha or beta) not stated; 22-R Hydroxycholesterol at 50 μM as 100% control; read-out: EC50 in coactivator recruitment assays
From the text: Co-Activator Recruitment Assay The Ligand Binding Domain (LBD) of human LXRalpha (amino acid 205-447) and LXRbeta (amino acid 216-461) was produced by recombinant techniques in E coli. A fragment of the human Steroid Receptor Co-Activator-1 (SRC-1) was produced as a synthetic peptide. An anti-6His-antibody coupled with Europium (Eu^3+) was used to recognize the His-tag on the LXR-LBD and Allophycocyanin (APC) coupled to streptavidin was used to recognize the biotinylated SRC-1. Agonist binding to LXRalpha or LXRbeta enhances the affinity of LXR towards SRC-1 and thereby brings Eu^3+ and APC in close proximity. Eu^3+ is excited at 337 nm and emitts light at 620 nm. This emission, when in close proximity, excites APC to emit light at 665 nm.
Dilution plates with compounds in DMSO were further diluted in buffer {20 mM [Tris(hydroxymethyl)aminomethane] pH 7.5, 0.125% CHAPS {3-[(3-Cholamidopropyl)dimethylammonio]-1-propanesulfonate}, 2 mM DTT (Dithiothreitol) and 0.05% BSA (Bovine Serum Albumin)} in order to reduce DMSO concentration, 0.5 μl to 13.5 μl. To this, 6 μl assay mix was added and the plates (384-well V-groove plates) were incubated at room temperature for 60 to 80 min. […] Time-resolved fluorescence readings were done in a Wallac Victor reader at 665 nm followed by reading at 615 nm. […]

Row | SMILES | EC50 [nM]
1 | CCCCN1C(=O)C(c2ccccc2)=C(Nc2ccc(OC)cc2)C1=S [Example 7, 1-Butyl-4-[(4-methoxyphenyl)amino]-3-phenyl-5-thioxo-1,5-dihydro-2H-pyrrol-2-one] | 90
2 | Nc1ccc(CN2C(=S)C(Nc3ccc(OC(F)F)cc3)=C(c3ccccc3)C2=S)cn1 [Example 18, 1-[(6-Aminopyridin-3-yl)methyl]-3-{[4-(difluoromethoxy)phenyl]amino}-4-phenyl-1H-pyrrole-2,5-dithione] | 140
